The record followed here is patent publication US10584116B2, “Heterocyclic sulfonamide derivative and medicine containing same” (EA Pharma Co., Ltd., priority 2016, dated 2020).

The target in this test is human TRPA1 (Homo sapiens (Human), UniProt O75762). Description: Measurement of TRPA1 antagonist activity (intracellular calcium increase induced by allylisothiocyanate in 293T cells transfected with human TRPA1). The conditions noted are these: 293T cells expressing human TRPA1, allylisothiocyanate stimulation, FLIPR Calcium4 fluorescence; read-out: hTRPA1 IC50. It is filed as cell-based. As for the experimental part: Measurement of TRPA1 Antagonist Activity
Chain of human TRPA1 (O75762 whole entry): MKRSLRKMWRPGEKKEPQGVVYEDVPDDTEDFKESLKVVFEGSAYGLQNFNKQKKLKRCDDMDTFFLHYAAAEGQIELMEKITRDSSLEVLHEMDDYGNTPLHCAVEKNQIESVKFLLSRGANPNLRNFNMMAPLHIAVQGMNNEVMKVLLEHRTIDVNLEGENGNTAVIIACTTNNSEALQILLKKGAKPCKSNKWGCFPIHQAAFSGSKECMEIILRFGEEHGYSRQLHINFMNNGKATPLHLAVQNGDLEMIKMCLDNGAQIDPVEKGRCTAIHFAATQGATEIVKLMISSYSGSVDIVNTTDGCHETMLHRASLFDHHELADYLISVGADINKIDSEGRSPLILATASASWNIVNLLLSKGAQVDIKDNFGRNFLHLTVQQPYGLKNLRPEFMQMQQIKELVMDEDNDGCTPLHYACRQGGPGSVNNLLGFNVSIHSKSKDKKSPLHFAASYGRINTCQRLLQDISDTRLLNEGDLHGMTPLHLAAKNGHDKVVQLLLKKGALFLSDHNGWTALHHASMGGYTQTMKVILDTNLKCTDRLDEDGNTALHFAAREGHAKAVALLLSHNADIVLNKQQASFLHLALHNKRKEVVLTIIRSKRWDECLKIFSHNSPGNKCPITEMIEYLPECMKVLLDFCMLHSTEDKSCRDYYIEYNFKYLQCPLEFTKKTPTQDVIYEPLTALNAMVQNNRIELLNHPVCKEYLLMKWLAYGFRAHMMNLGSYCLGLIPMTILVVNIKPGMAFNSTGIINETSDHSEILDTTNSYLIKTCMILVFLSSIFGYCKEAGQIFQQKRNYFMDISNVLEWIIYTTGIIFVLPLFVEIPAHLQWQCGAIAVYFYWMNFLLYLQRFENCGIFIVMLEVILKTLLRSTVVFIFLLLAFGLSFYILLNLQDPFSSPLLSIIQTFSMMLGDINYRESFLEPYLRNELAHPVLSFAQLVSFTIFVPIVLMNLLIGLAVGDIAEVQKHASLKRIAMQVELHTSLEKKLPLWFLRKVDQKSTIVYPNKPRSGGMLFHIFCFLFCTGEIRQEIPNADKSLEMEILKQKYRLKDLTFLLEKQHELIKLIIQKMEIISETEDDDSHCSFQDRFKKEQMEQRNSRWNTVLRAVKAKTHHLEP
Human TRPA1 Expression Plasmid
Using cDNA encoding human TRPA1 (GenBank accession No. NM_007332) (manufactured by Kazusa DNA Research Institute, item No. FHC07217) as a template, primer 1 (SEQ ID NO: 1) and primer 2 (SEQ ID NO: 2), PCR by PfuUltra High-Fidelity DNA Polymerase (Stratagene) was performed, and full-length human TRPA1 gene was amplified.
A recognition site (underlined) of restriction enzyme HindIII was added to the 5′ end of human TRPA1 gene, and XbaI site (underlined) was added to the 3′ end of human TRPA1 gene, and GTT of the template sequence was changed to termination codon TAG (bold). The obtained double stranded DNA was enzyme-digested with HindIII and XbaI, and introduced into a multicloning site of expression plasmid pcDNA3.1/zeo(+) (manufactured by Invitrogen) to give a human TRPA1 expression plasmid.
Human embryonic kidney-derived 293T cells were cultured in Dulbecco's Modified Eagle Medium containing 10% fetal bovine serum, 10 unit penicillin, and 10 μg streptomycin. One day before assay, 3×10^6 of 293T cells were plated on a petri dish having a diameter of 10 cm, and cultured in a CO2 incubator for 24 hr. OPTI-MEM I Reduced Serum Media (Invitrogen) (600 μL), Mirus TransIT-293 (Mirus Bio) (18 μL), and human TRPA1 expression plasmid (6 μg) were mixed, the total amount of the mixture was added to the cells on the petri dish to allow for gene transfer. The cells were recovered about for 8 hr later, plated on a poly-D-lysine coated 384 well black/clear bottom plate at 12,000 cells/well, and cultured overnight.
Measurement of Intracellular Calcium Increase
The medium was removed from the 384 well plate, calcium indicator (Molecular Device, trade name: FLIPR Calcium4 Assay Kit) dissolved in HBSS (Thermo Fisher Scientific) (pH 7.2) containing 20 mM HEPES was added (38 μL/well), and the cells were stained in a CO2 incubator for 1 hr. The 384 well plate was stood at room temperature for not less than 15 min, set on FDSS7000 (Hamamatsu Photonics K.K.), and a test substance solution was added at 10 μL/well. After 10 min, allylisothiocyanate solution (12 μL/well) was added, the relative fluorescence intensity was measured for 5 min after addition of the allylisothiocyanate solution.
Test Substance Preparation
Preparation of Test Substance Solution and Allylisothiocyanate Solution
A test substance solution was prepared to have a composition of HBSS (Thermo Fisher Scientific) (pH 7.2) containing 0.48% dimethyl sulfoxide, a test substance at 4.8-fold concentration of the evaluation concentration, 0.1% bovine serum albumin and 20 mM HEPES. An allylisothiocyanate solution was prepared to have a composition of HBSS (Thermo Fisher Scientific) (pH 7.2) containing 0.1% dimethyl sulfoxide, 100 μM allylisothiocyanate, 0.1% bovine serum albumin and 20 mM HEPES.
Calculation of Antagonist Activity
The activity rate of a test substance at each concentration was calculated, wherein the relative fluorescence intensity change of a well free of a test substance and containing allylisothiocyanate is 100% activity rate, and the relative fluorescence intensity change of a well free of a test substance and allylisothiocyanate is 0% activity rate. The inhibitory rate of a test substance at each concentration was calculated by subtracting the activity rate of the test substance from 100% activity rate, and the concentration of a test substance showing 50% inhibitory rate was calculated as IC50 from the sigmoid approximate curve by XLfit (idbs).
On the technique in general: Calcium assays in cells follow changes in intracellular calcium, usually with a dye or a luminescent sensor.
Broadly, the IC50 is the midpoint of a concentration-inhibition curve. Take `CCn1c(=O)c(CNC(=O)[C@@H]2CCCN2S(=O)(=O)c2cc3ccccc3o2)cn(-c2ccc(C(F)(F)F)cc2)c1=O` [Example 2, (2S)-1-(benzofuran-2-ylsulfonyl)-N-[[3-ethyl-2,4-dioxo-1-[4-(trifluoromethyl)phenyl]pyrimidin-5-yl]methyl]pyrrolidine-2-carboxamide]: the IC50 turned out to be 26 nM. To `CC(C)n1c(=O)c(CNC(=O)[C@@H]2CCCN2S(=O)(=O)c2cc3cc(F)ccc3o2)cn(-c2ccc(C(F)(F)F)cc2)c1=O` [Example 3, (2S)-1-(5-fluorobenzofuran-2-yl)sulfonyl-N-[[3-isopropyl-2,4-dioxo-1-[4-(trifluoromethyl)phenyl]-pyrimidin-5-yl]methyl]pyrrolidine-2-carboxamide] belongs 7.3 nM; to `CCn1c(=O)c(CNC(=O)[C@@H]2CCCN2S(=O)(=O)c2cc3cc(F)ccc3o2)cn(-c2ccc(C(F)(F)F)cc2)c1=O` [Example 4, (2S)-1-(5-fluorobenzofuran-2-yl)sulfonyl-N-[[3-ethyl-2,4-dioxo-1-[4-(trifluoromethyl)phenyl]pyrimidin-5-yl]methyl]pyrrolidine-2-carboxamide], 11 nM. To `Cn1c(=O)c(CNC(=O)[C@@H]2CCCN2S(=O)(=O)c2cc3cc(F)ccc3o2)cn(-c2ccc(C(F)(F)F)cc2)c1=O` [Example 5, (2S)-1-(5-fluorobenzofuran-2-yl)sulfonyl-N-[[3-methyl-2,4-dioxo-1-[4-(trifluoromethyl)phenyl]-pyrimidin-5-yl]methyl]pyrrolidine-2-carboxamide] belongs 21 nM.

Turning to `C[C@H](NS(=O)(=O)c1cc2cc(F)ccc2o1)C(=O)NCc1cn(-c2ccc(C(F)(F)F)cc2)c(=O)n(C)c1=O` [Example 6, (2S)-2-[(5-fluorobenzofuran-2-yl)sulfonylamino]-N-[[3-methyl-2,4-dioxo-1-[4-(trifluoromethyl)phenyl]-pyrimidin-5-yl]methyl]propanamide], the IC50 came to 540 nM. Next, `CC(C)n1c(=O)c(CNC(=O)[C@@H]2[C@@H](O)CCN2S(=O)(=O)c2cc3ccccc3o2)cn(-c2ccc(C(F)(F)F)cc2)c1=O` [Example 7, (2S,3S)-1-(benzofuran-2-ylsulfonyl)-3-hydroxy-N-[[3-isopropyl-2,4-dioxo-1-[4-(trifluoromethyl)phenyl]-pyrimidin-5-yl]methyl]pyrrolidine-2-carboxamide]: 220 nM; `CC(C)n1c(=O)c(CNC(=O)[C@@H]2[C@@H](O)CCN2S(=O)(=O)c2cc3cc(F)ccc3o2)cn(-c2ccc(C(F)(F)F)cc2)c1=O` [Example 8, (2S,3S)-1-(5-fluorobenzofuran-2-yl)sulfonyl-3-hydroxy-N-[[3-isopropyl-2,4-dioxo-1-[4-(trifluoromethyl)phenyl]pyrimidin-5-yl]methyl]pyrrolidine-2-carboxamide]: 64 nM. Consider `O=C(NCc1cn(-c2ccc(C(F)(F)F)cc2)c(=O)n(C2CCOCC2)c1=O)[C@@H]1CCCN1S(=O)(=O)c1cc2ccccc2o1` [Example 9, (2S)-1-(benzofuran-2-ylsulfonyl)-N-[[2,4-dioxo-3-tetrahydropyran-4-yl-1-[4-(trifluoromethyl)phenyl]-pyrimidin-5-yl]methyl]pyrrolidine-2-carboxamide], for which the IC50 came to 140 nM. Take `CC(C)n1c(=O)c(CNC(=O)[C@@H]2CCCN2S(=O)(=O)c2cc3c(F)cccc3o2)cn(-c2ccc(C(F)(F)F)cc2)c1=O` [Example 10, (2S)-1-(4-fluorobenzofuran-2-yl)sulfonyl-N-[[3-isopropyl-2,4-dioxo-1-[4-(trifluoromethyl)phenyl]-pyrimidin-5-yl]methyl]pyrrolidine-2-carboxamide]: the IC50 came to 25 nM. For `CC(C)n1c(=O)c(CNC(=O)[C@@H]2CCCN2S(=O)(=O)c2ccc(Cl)s2)cn(-c2ccc(C(F)(F)F)cc2)c1=O` [Example 11, (2S)-1-[(5-chloro-2-thienyl)sulfonyl]-N-[[3-isopropyl-2,4-dioxo-1-[4-(trifluoromethyl)phenyl]-pyrimidin-5-yl]methyl]pyrrolidine-2-carboxamide], the IC50 came out at 33 nM. Take `CC(C)n1c(=O)c(CNC(=O)[C@@H]2CCCN2S(=O)(=O)c2ccc(F)cc2)cn(-c2ccc(C(F)(F)F)cc2)c1=O` [Example 12, (2S)-1-(4-fluorophenyl)sulfonyl-N-[[3-isopropyl-2,4-dioxo-1-[4-(trifluoromethyl)phenyl]pyrimidin-5-yl]methyl]pyrrolidine-2-carboxamide]: the IC50 amounted to 120 nM.

Regarding `CC(C)n1cc(CNC(=O)[C@@H]2CCCN2S(=O)(=O)c2cc3ccccc3o2)cc(-c2ccc(C(F)(F)F)cc2)c1=O` [Example 13, (2S)-1-(benzofuran-2-ylsulfonyl)-N-[[1-isopropyl-6-oxo-5-[4-(trifluoromethyl)phenyl]-3-pyridyl]methyl]pyrrolidine-2-carboxamide], the IC50 was 27 nM.

For `O=C(NCc1ccc(=O)n(-c2ccc(C(F)(F)F)cc2)c1)[C@@H]1CCCN1S(=O)(=O)c1cc2ccccc2o1` [Example 14, (2S)-1-(benzofuran-2-ylsulfonyl)-N-[[6-oxo-1-[4-(trifluoromethyl)phenyl]-3-pyridyl]methyl]pyrrolidine-2-carboxamide], the half-inhibitory concentration (IC50) was 160 nM. With `CC(C)n1cc(-c2ccc(C(F)(F)F)cc2)cc(CNC(=O)[C@@H]2CCCN2S(=O)(=O)c2cc3ccccc3o2)c1=O` [Example 15, (2S)-1-(benzofuran-2-ylsulfonyl)-N-[[1-isopropyl-2-oxo-5-[4-(trifluoromethyl)phenyl]-3-pyridyl]methyl]pyrrolidine-2-carboxamide], the IC50 was found to be 79 nM. Next, `CC(C)n1c(=O)c(CNC(=O)[C@@H]2C=CCN2S(=O)(=O)c2cc3cc(F)ccc3o2)cn(-c2ccc(C(F)(F)F)cc2)c1=O` [Example 16, (2S)-1-(5-fluorobenzofuran-2-yl)sulfonyl-N-[[3-isopropyl-2,4-dioxo-1-[4-(trifluoromethyl)phenyl]-pyrimidin-5-yl]methyl]-2,5-dihydropyrrole-2-carboxamide]: 3.6 nM; `CC(C)n1c(=O)c(CNC(=O)[C@@H]2CC(F)(F)CN2S(=O)(=O)c2cc3cc(F)ccc3o2)cn(-c2ccc(C(F)(F)F)cc2)c1=O` [Example 17, (2S)-4,4-difluoro-1-(5-fluorobenzofuran-2-yl)sulfonyl-N-[[3-isopropyl-2,4-dioxo-1-[4-(trifluoromethyl)phenyl]pyrimidin-5-yl]methyl]pyrrolidine-2-carboxamide]: 46 nM; `CC(C)n1c(=O)c(CNC(=O)[C@@H]2CCN2S(=O)(=O)c2cc3cc(F)ccc3o2)cn(-c2ccc(C(F)(F)F)cc2)c1=O` [Example 18, (2S)-1-(5-fluorobenzofuran-2-yl)sulfonyl-N-[[3-isopropyl-2,4-dioxo-1-[4-(trifluoromethyl)phenyl]-pyrimidin-5-yl]methyl]azetidine-2-carboxamide]: 9 nM. As to `CC(C)n1c(=O)c(CNC(=O)[C@@H]2CCCN2S(=O)(=O)c2cc3ccccc3s2)cn(-c2ccc(C(F)(F)F)cc2)c1=O` [Example 19, (2S)-1-(benzothiophen-2-ylsulfonyl)-N-[[3-isopropyl-2,4-dioxo-1-[4-(trifluoromethyl)phenyl]-pyrimidin-5-yl]methyl]pyrrolidine-2-carboxamide], the IC50 came to 56 nM. For the molecule `O=C(NCc1ccc(=O)n(-c2ccc(C(F)(F)F)cc2)c1)[C@@H]1CCCN1S(=O)(=O)c1cc2cc(F)ccc2o1` [Example 22, (2S)-1-(5-fluorobenzofuran-2-yl)sulfonyl-N-[[6-oxo-1-[4-(trifluoromethyl)phenyl]-3-pyridyl]methyl]pyrrolidine-2-carboxamide], the IC50 came out at 60 nM. With `CC(C)n1c(=O)c(CNC(=O)[C@@H]2CCCN2S(=O)(=O)c2cc3cnccc3o2)cn(-c2ccc(C(F)(F)F)cc2)c1=O` [Example 23, (2S)-1-fro[3,2-c]pyridin-2-ylsulfonyl-N-[[3-isopropyl-2,4-dioxo-1-[4-(trifluoromethyl)phenyl]-pyrimidin-5-yl]methyl]pyrrolidine-2-carboxamide], the concentration for half-maximal inhibition (IC50) was 20 nM.
